Data taken from patent publication US20090018146A1, “Combination Therapy with Triterpenoid Compounds and Proteasome Inhibitors” (Research Development Corporation, priority 2005, published 2009).

Legend:
Hsp70 [1] = assay: Western blot of Hsp70 protein in avicin D treated Jurkat cells; format: cell-based, human; details: avicin D 1 μM, within one hour up to 4 hours, western blot vs untreated
Procedure: (§1) Jurkat T cells (2 μg/ml=1 μM), U-937 (4 μg/ml), MJ (5 μg/ml), and HH cells (2.5 μg/ml) were treated for 0-24 hours with the indicated concentrations of avicin D. PBLs from the patients or normal blood were treated with 5 μg/ml of avicin D for 24 hours.
(§2) At the end of treatments, cells were harvested, washed with sterile ice-cold PBS and cytoplasmic extracts (CE) were prepared by lysing the cells in CE buffer containing 10 mM Hepes-Cl pH 7.5, 10 mM KCl, 0.1 mM EDTA, 0.1 mM EGTA, 0.3% NP40, and a protease inhibitor cocktail (Sigma). After centrifugation and separating the supernatant (CE proteins), the pellet was resuspended in a buffer containing 20 mM Hepes-Cl, 400 mM NaCl, 1 mM EDTA, 1 mM EGTA, and protease inhibitor cocktail (Sigma). The nuclear protein extraction proceeded for 30 min. on ice followed by centrifugation at 14,000 rpm for 5 min at 4° C. The clear supernatant containing nuclear proteins (NE) was collected, glycerol (10%) was added, and proteins stored at −80° C. until use.
(§3) SDS-PAGE and immunoblot procedures were essentially performed as described (Sambrook, 1989). Briefly, cytoplasmic and nuclear proteins were resolved on SDS-PAGE, blotted on PVDF membranes (BioRad) and probed with various antibodies followed with anti-rabbit, anti-mouse antibody conjugated to horseradish peroxidase (HRP) from BioRad or HRP conjugated anti-goat antibody from Santa Cruz Biotechnology, corresponding to the primary antibody. Protein bands were detected using the ECL chemiluminescence kit from Amersham as per the manufacturer's protocol.
(§4) Quantitation of proteins (western) and transcripts (RT-PCR) was performed using the NIH 1.61 image software.

[2] = system: Hsc70, Hsp60, grp75, calnexin; assay: Western blot of other chaperone proteins in avicin D treated Jurkat cells; format: cell-based, human; details: avicin D 1 μM, up to 4 hours
Procedure: as §1, §2
(§5) SDS-PAGE and immunoblot procedures were essentially performed as described (Sambrook, 1989). […] Protein bands were detected using the ECL chemiluminescence kit from Amersham as per the manufacturer's protocol.
as §4

HSF1 = assay: Western blot of HSF1 in cytoplasmic and nuclear extracts of Jurkat cells; format: cell-based, human
Procedure: as §1, §2, §5, §4

Hsp70α transcript = assay: One-step RT-PCR of Hsp70α transcript in Jurkat cells; format: cell-based, human; details: as early as 30 minutes
Procedure: (§6) Total RNA purified using Trizol method (Invitrogen) was subjected to DNAseI (RNAase free, Sigma Chemical Co.) treatment to remove any residual DNA, followed by heat inactivation and addition of 1 mM EDTA. Absence of genomic DNA was confirmed by performing PCR using Taq DNA polymerase. About 50-100 ng of purified total RNA was used in a one-step RT-PCR reaction kit from Invitrogen in a Techne Genius machine. The samples were separated on 0.8% agarose-TBE gels and viewed by staining with ethidium bromide.
as §4

Hsp90β transcript = assay: One-step RT-PCR of Hsp90β transcript in Jurkat cells; format: cell-based, human; details: as early as 30 minutes
Procedure: as §6, §4

recombinant Hsp70 = assay: In vitro ubiquitination assay with recombinant Hsp70, his-ub and CE proteins of treated cells; format: biochemical, bovine; details: cytoplasmic extracts of treated vs untreated Jurkat cells
Procedure: Ubiquitination assays were performed as described (Firestein and Feuerstein, 1998) with few modifications using recombinant bovine Hsp70 and N-terminal histidine-tagged ubiquitin (his-ub). About 0.5 μg of Hsp70 and 4 μg of his-ub were incubated in a buffer containing 50 mM Tris-Cl pH 7.5, 2.5 mM MgCl2, 0.05% NP 40, 0.5 mM DTT, 5 mM ATP, 4 μM MG132, and ATP regenerating system containing 10 mM creatine phosphate, 0.1 μg/ml of creatine kinase, and about 50 μg of CE proteins. The reaction was carried out for 1 hour at 30° C. and the products were subjected to nickel agarose chromatographic purification to purify histidine-tagged proteins as per manufacturer's protocol (Qiagen). The affinity-purified proteins were prepared for SDS-PAGE and western analysis using anti-Hsp70 antibodies.

his-ub-Hsp70 = assay: In vivo ubiquitination of Hsp70 in his-ub transfected Jurkat cells; format: cell-based, human; details: his-ub transfected Jurkat cells, avicin D 1 μM, 2 and 4 hours, p<0.05
Procedure: Jurkat T-cells were transfected with a plasmid pDG268 that expresses a fusion protein of histidine-tagged human ubiquitin and enhanced GFP. Transfection was performed using μm ax a Biosystems kit and their protocol. After 24 hours of transfection, cells were harvested, resuspended at a density of 10^6 cells/ml before treatment with lactacystin or avicin D.
Jurkat T cells transfected with the his-ub plasmid construct were treated with lactacystin (10 μM) or with avicin D (1 μM) for 4 hours. Cells were harvested and CE prepared as described above. […] The affinity purified histidine-tagged proteins were separated on SDS-PAGE and analyzed on western blots for ub-Hsp70 proteins.

E3α ubiquitin ligase = assay: Western blot of E3α ubiquitin ligase in Jurkat cells; format: cell-based, human; details: peak at one hour of treatment
Procedure: as §1, §2, §5

CHIP = assay: Western blot of CHIP in Jurkat cells; format: cell-based, human; details: same conditions as E3α
Procedure: as §1, §2, §5

XIAP [3] = assay: Western blot of XIAP protein in Jurkat cells; format: cell-based, human
Procedure: as §1, §2, §3, §4

caspase 3 = assay: Western blot of caspase 3 activation in Jurkat cells; format: cell-based, human; details: 2-4 hours
Procedure: as §1, §2, §5

XIAP [4] = assay: Western blot of XIAP in leukemic/lymphoma cell-lines; format: cell-based, human; details: Jurkat, U937, MJ-1, and HH cells, 24 hours post-treatment
Procedure: Human Jurkat T cell leukemia, monocytic U937 cells, and cutaneous T-cell lymphoma (CTCL) cell lines MJ (G11) and HH were obtained from American Type Culture Collection (Rockville, Md.) and grown in RPMI 1640 medium supplemented with 10% FBS and 2 mM glutamine.
as §1
as §2, with “The nuclear protein extraction proceeded for 30 min. on ice followed by centrifugation at 14,000 rpm for 5 min at 4° C. The clear supernatant containing nuclear proteins (NE) was collected, glycerol (10%) was added, and proteins stored at −80° C. until use.” left out
as §5, §4

Hsp70 [5] = assay: Western blot of Hsp70 in primary PBL from Sezary syndrome patients; format: cell-based, human; details: 5 μg/ml, 24 hours
Procedure: as §1, §2, §5, §4

XIAP [6] = assay: Western blot of XIAP in primary PBL from Sezary syndrome patients; format: cell-based, human; details: 5 μg/ml, 24 hours
Procedure: as §1, §2, §5, §4

Hsp70 [7] = assay: Western blot of Hsp70 in normal PBL; format: cell-based, human; details: PBL from a normal blood sample, 5 μg/ml, 24 hours
Procedure: as §1, §2, §5

XIAP [8] = assay: Western blot of XIAP in normal PBL; format: cell-based, human; details: PBL from a normal blood sample, 5 μg/ml, 24 hours
Procedure: as §1, §2, §5

[9] = system: PBL from a normal blood sample; assay: Apoptosis in normal PBL; format: cell-based, human
Procedure: as §1

[10] = system: ubiquitin-protein conjugates; assay: Western blot of ubiquitin-protein conjugates in Jurkat cells; format: cell-based, human; details: from around 2 hours
Procedure: as §1, §2, §5

Which “protein levels of Hsp70” value (Hsp70 [1]) does the source give for `C=C[C@](C)(O)CC/C=C(\CO)C(=O)O[C@H]1[C@H](O)[C@@H](O)[C@H](O[C@@](C)(C=C)CC/C=C(\CO)C(=O)O[C@H]2C[C@]3(C(=O)O[C@@H]4O[C@H](CO)[C@@H](O)[C@H](O)[C@H]4O[C@@H]4O[C@@H](C)[C@H](O[C@@H]5O[C@@H](CO)[C@H](O)[C@H]5O)[C@@H](O[C@@H]5O[C@H](CO)[C@@H](O)[C@H](O)[C@H]5O)[C@H]4O)[C@H](O)C[C@]4(C)C(=CC[C@@H]5[C@@]6(C)CC[C@H](O[C@@H]7O[C@H](CO[C@@H]8O[C@H](C)[C@H](O)[C@H](O)[C@H]8O[C@@H]8OC[C@@H](O)[C@H](O)[C@H]8O)[C@@H](O)[C@H](O)[C@H]7NC(C)=O)C(C)(C)[C@@H]6CC[C@]54C)[C@@H]3CC2(C)C)O[C@@H]1C` [avicin D] here?
The value was “significant decrease”.

What about the “expression of other chaperone proteins (Hsc70, Hsp60, grp75, calnexin)” value [2] of the same molecule?
The value was “did not show any change”.

And the “increase in the levels of nuclear HSF1” value (HSF1; 4 hours, nuclear extract, densitometric scanning)?
The value was roughly 1.5 fold.

What about the “cytoplasmic content of HSF1 protein” value (HSF1; cytoplasmic extract) of the same molecule?
The value was “No apparent change”.

What about the “increase in the Hsp70α transcript (RT-PCR)” value (Hsp70α transcript) of the same molecule?
The value was roughly 1.6 fold.

What about the “increase in the Hsp90β transcript (RT-PCR)” value (Hsp90β transcript) of the same molecule?
The value was roughly 1.4 fold.

And the “in vitro ubiquitination of Hsp70 (his-ub-Hsp70 ladder)” value (recombinant Hsp70)?
Its value is “stronger ladder of his-ub-Hsp70”.

What about the “decrease in the levels of his-ub-Hsp70 protein band” value (his-ub-Hsp70) of the same molecule?
Its value is 40%.

And the E3α protein level (E3α ubiquitin ligase)?
Its E3α protein level is “dramatic increase”.

What about the “levels of CHIP” value (CHIP) of the same molecule?
Its value is “No significant change”.

And the XIAP degraded (XIAP [3]; by 1 hour)?
Its XIAP degraded is roughly 60%.

And the XIAP protein level (XIAP [3]; starting at 1 hour post treatment)?
The XIAP protein level was “significant decrease”.

And the “caspase 3 activation” value (caspase 3)?
The value was “caspase 3 activation”.

What about the XIAP protein level (XIAP [4]) of the same molecule?
The XIAP protein level was “significant decrease”.

What about the “decrease in Hsp70 protein” value (Hsp70 [5]) of the same molecule?
The value was 25-35%.

And the “decrease in XIAP protein” value (XIAP [6])?
The value was 30-40%.

And the “change in Hsp70 protein” value (Hsp70 [7])?
Its value is “no significant change”.

What about the “change in XIAP protein” value (XIAP [8]) of the same molecule?
The value was “no significant change”.

And the apoptosis [9]?
Its apoptosis is “resistant to apoptosis”.

What about the “ubiquitin-protein conjugates in cell extracts” value [10] of the same molecule?
Its value is “protein conjugates observed”.
